Measurements: patent publication US20240025862A1, “SUBSTITUTED N-PHENYLURACILS AND SALTS THEREOF, AND USE THEREOF AS HERBICIDAL ACTIVE SUBSTANCES” (Bayer Aktiengesellschaft, priority 2020, published 2024)

What was measured:
Format in all cases: in vivo
[1] = tested on: Pharbitis purpurea (PHBPU); assay: Pre-emergence herbicidal action, greenhouse pot test; settings: scored after about 3 weeks
From the text: (§1) Seeds of monocotyledonous and dicotyledonous weed plants and crop plants were placed in plastic or organic planting pots and covered with soil. The compounds of the invention, formulated in the form of wettable powders (WP) or as emulsion concentrates (EC), were then applied to the surface of the covering soil as aqueous suspension or emulsion with addition of 0.5% additive at a water application rate equivalent to 600 l/ha (converted). After the treatment, the pots were placed in a greenhouse and kept under good growth conditions for the test plants. After about 3 weeks, the effect of the preparations was scored visually in comparison with untreated controls as percentages. For example, 100% activity=the plants have died, 0% activity=like control plants.
(§2) Tables B1 to B10 below show the effects of selected compounds of the general formula (I) according to Tables I.1 to I.33 on various harmful plants and at an application rate corresponding to 80 g/ha and less, which were obtained by the experimental method specified above. The appendices “a”, “b” and “c” give differentiation by different dosage with otherwise the same harmful plants tested.

Veronica persica (VERPE) = assay: as above; settings: scored after about 3 weeks
From the text: as §1, §2

[2] = tested on: Amaranthus retroflexus (AMARE); assay: as above; settings: scored after about 3 weeks
From the text: as §1, §2

[3] = tested on: Digitaria sanguinalis (DIGSA); assay: as above; settings: scored after about 3 weeks
From the text: as §1, §2

[4] = tested on: Matricaria inodora (MATIN); assay: as above; settings: scored after about 3 weeks
From the text: as §1, §2

[5] = tested on: Abutilon theophrasti (ABUTH); assay: as above; settings: scored after about 3 weeks
From the text: as §1, §2

Lolium rigidum (LOLRI) = assay: as above; settings: 80 g/ha, scored after about 3 weeks
From the text: as §1, §2

[6] = tested on: Echinochloa crus-galli (ECHCG); assay: as above; settings: 80 g/ha, scored after about 3 weeks
From the text: as §1, §2

[7] = tested on: Alopecurus myosuroides (ALOMY); assay: as above; settings: scored after about 3 weeks
From the text: as §1, §2

Avena fatua (AVEFA) = assay: as above; settings: 80 g/ha, scored after about 3 weeks
From the text: as §1, §2

Brassica napus (BRSNW) = assay: Post-emergence crop plant compatibility, greenhouse pot test; settings: 1.25 g/ha, vs untreated controls
Summary of the method: (§3)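 Crop plants grown in sandy loam in the greenhouse were sprayed post-emergence at the one-leaf stage, 2–3 weeks after sowing, with WP or EC formulations as aqueous suspension/emulsion plus 0.5% additive at 600 l/ha. Damage was rated visually about 3 weeks later versus untreated controls (0% = like control, 100% = plants dead).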

Zea mays (ZEAMX) = assay: as above; settings: 1.25 g/ha, vs untreated controls
Summary of the method: as §3

[8] = tested on: Triticum aestivum (TRZAS); assay: as above; settings: 1.25 g/ha, vs untreated controls
Summary of the method: as §3

Glycine max (GLXMA) = assay: as above
Summary of the method: as §3

COCCOC(=O)COc1ccccc1Oc1cc(-n2c(=O)cc(C(F)(F)F)n(C)c2=O)c(F)cc1Cl [I.7-1, 2-Methoxyethyl (2-{2-chloro-4-fluoro-5-[3-methyl-2,6-dioxo-4-(trifluoromethyl)-3,6-dihydropyrimidin-1(2H)-yl]phenoxy}phenoxy)acetate]
Pre-emergence action against PHBPU in % ([1]; 20 g/ha): 100%
Pre-emergence action against PHBPU in % ([1]; 80 g/ha): 100%
Pre-emergence action against VERPE in % (Veronica persica (VERPE); 20 g/ha): 100%
Pre-emergence action against VERPE in % (Veronica persica (VERPE); 80 g/ha): 100%
Pre-emergence action against AMARE in % ([2]; 20 g/ha): 100%
Pre-emergence action against AMARE in % ([2]; 80 g/ha): 100%
Pre-emergence action against DIGSA in % ([3]; 20 g/ha): 100%
Pre-emergence action against DIGSA in % ([3]; 80 g/ha): 100%
Pre-emergence action against MATIN in % ([4]; 20 g/ha): 100%
Pre-emergence action against MATIN in % ([4]; 80 g/ha): 100%
Pre-emergence action against ABUTH in % ([5]; 20 g/ha): 100%
Pre-emergence action against ABUTH in % ([5]; 80 g/ha): 100%
Pre-emergence action against LOLRI in % (Lolium rigidum (LOLRI)): 100%
Pre-emergence action against ECHCG in % [6]: 90%
Pre-emergence action against ALOMY in % ([7]; 20 g/ha): 80%
Pre-emergence action against ALOMY in % ([7]; 80 g/ha): 100%
Pre-emergence action against AVEFA in % (Avena fatua (AVEFA)): 100%
Post-emergence action against BRSNW (crop plant compatibility) (Brassica napus (BRSNW)): 20%
Post-emergence action against ZEAMX (crop plant compatibility) (Zea mays (ZEAMX)): 20%
Post-emergence action against TRZAS (crop plant compatibility) [8]: 20%
Post-emergence action against GLXMA in % (Glycine max (GLXMA); 1.25 g/ha): 10%
Post-emergence action against GLXMA in % (Glycine max (GLXMA); 5 g/ha): 10%
Post-emergence action against GLXMA in % (Glycine max (GLXMA); 20 g/ha): 10%
